Results reported in US11542304B2, “Multimeric bicyclic peptide ligands” (BicycleTx Limited, priority 2018, dated 2023).
Starred links: 1 amine or outer side, 2 acyl side, 3 side chain; linkers in the order of their positions; H or OH if unused. Positions of bridges follow the written chain, without caps; N, C: chain ends. Non-standard residues stand in square brackets, D forms with d. Chains are numbered I, II in the order given. X1 = O=C(CCOCCN(CCOCCC(=O)NCCOCCOCCOCCOCCOCCOCCOCCOCCOCCOCCn1cc(CCC(=O)[*:2])nn1)CCOCCC(=O)NCCOCCOCCOCCOCCOCCOCCOCCOCCOCCOCCn1cc(CCC(=O)[*:3])nn1)NCCOCCOCCOCCOCCOCCOCCOCCOCCOCCOCCn1cc(CCC(=O)[*:1])nn1; TATA = O=C(CC[*:1])N1CN(C(=O)CC[*:2])CN(C(=O)CC[*:3])C1; Nle = CCCC[C@H](N)C(=O)O

How the values were obtained:
[1] = clinical testing, cited from earlier work
[2] = Pharmacokinetics of Bicycle multimers in CD-1 mice; conditions: 5 mg/kg IV, male CD-1 mice; FIGS. 5A and 5B
Protocol: Male CD-1 mice were dosed with 5 mg/kg of each Bicycle multimer formulated in 25 mM Histidine HCl, 10% sucrose pH 7 via tail vein injection. Serial bleeding (about 80 μL blood/time point) was performed via submandibular or saphenous vein at each time point. All blood samples were immediately transferred into prechilled microcentrifuge tubes containing 2 μL K2-EDTA (0.5M) as anti-coagulant and placed on wet ice. Blood samples were immediately processed for plasma by centrifugation at approximately 4° C., 3000 g. The precipitant including internal standard was immediately added into the plasma, mixed well and centrifuged at 12,000 rpm, 4° C. for 10 minutes. The supernatant was transferred into pre-labeled polypropylene microcentrifuge tubes, and then quick-frozen over dry ice. The samples were stored at 70° C. or below as needed until analysis. 7.5 μL of the supernatant samples were directly injected for LC-MS/MS analysis using an Orbitrap Q Exactive in positive ion mode to determine the concentrations of Bicycle multimer. Plasma concentration versus time data were analyzed by non-compartmental approaches using the Phoenix WinNonlin 6.3 software program. C0, Cl, Vdss, T1/2, AUC(0-last), AUC(0-inf), MRT(0-last), MRT(0-inf) and graphs of plasma concentration versus time profile were reported.

[3] = target: CD137 (Homo sapiens, UniProt Q07011); assay: CD137 Promega reporter cell activity assay (NF-κB luciferase in Jurkat cells); conditions: for Average Relative Fold Induction relative to CD137L: Average fold induction for CD137L = 4.0; for Average Fold EC50 Improvement relative to CD137L: Average EC50 for CD137L = 14.2 nM
Chain of CD137 (Q07011 24-255): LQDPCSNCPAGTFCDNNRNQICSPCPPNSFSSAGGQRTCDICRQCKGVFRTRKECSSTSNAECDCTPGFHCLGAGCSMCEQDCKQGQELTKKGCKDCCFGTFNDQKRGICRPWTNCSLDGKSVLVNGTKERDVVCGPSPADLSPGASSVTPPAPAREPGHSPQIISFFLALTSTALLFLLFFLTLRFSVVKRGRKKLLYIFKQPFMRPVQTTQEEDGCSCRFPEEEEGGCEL
Protocol: CD137 binding multimers were evaluated for CD137 using a Reporter cell activity assay that uses NF-κB luciferase luminescence as a read-out of CD137 activation in Jurkat cells. […] Samples were diluted at concentration expected to give the maximum fold induction and then titrated down in 1/3 dilution series or 1/10 dilution series in a sterile 96 well-plate. […] 50 μl cells were added per well to white cell culture plates.
Cells were co-incubated together with agonists for 6 h at 37° C., 5% CO2. After 6 h Bio-Glo™ was thawed and the assay developed at room-temperature. 75 ul Bio-Glo™ was added per well and incubated for 5-10 min. Luciferase signal was read on a Pherastar plate-reader using MARS program. Data was analysed by transforming the data to x=log (X), then plotting log (agonist) vs. response variable slope (4 parameters) to calculate EC50 values.

Molecule | single agent activity [1] | Average Relative Fold Induction relative to CD137L [3] | Average Fold EC50 Improvement relative to CD137L [3] | other results
urelumab | single agent, partial responses in melanoma |  |  | doses at which hepatoxicity was observed [1]: ≥ 1 mg/kg
I: Ac-ACIEKGQYCFADPY[Nle]CA-NH2 / II: Ac-ACIEKGQYCFADPY[Nle]CA-NH2 / III: Ac-ACIEKGQYCFADPY[Nle]CA-NH2 (linker I:2-I:9-I:16, II:2-II:9-II:16, III:2-III:9-III:16 via TATA; linker I:5-II:5-III:5 via X1) [BCY7835] |  | 1.04 |  | systemic elimination (plasma concentration after IV dosing) [2]: retain the property of rapid systemic elimination
utomilumab | little or no single agent activity |  |  | dose up to which hepatotoxicity was not observed ([1]; solid tumors): up to 5 mg/kg
CCCC[C@@H]1NC(=O)[C@H](Cc2ccc(O)cc2)NC(=O)[C@@H]2CCCN2C(=O)[C@H](CC(=O)O)NC(=O)[C@H](C)NC(=O)[C@H](Cc2ccccc2)NC(=O)[C@@H]2CSCCC(=O)N3CN(CN(C3)C(=O)CCSC[C@@H](C(=O)N[C@@H](C)C(N)=O)NC1=O)C(=O)CCSC[C@H](NC(=O)[C@H](C)NC(=O)OCC1C3CCc4nnn(CCOCCOCCOCCOCCOCCOCCOCCOCCOCCOCCOCCOCCOCCOCCOCCOCCOCCOCCOCCOCCOCCOCCOCCNC(=O)CCOCC(COCCC(=O)NCCOCCOCCOCCOCCOCCOCCOCCOCCOCCOCCOCCOCCOCCOCCOCCOCCOCCOCCOCCOCCOCCOCCOCCn5nnc6c5CCC5C(CC6)C5COC(=O)N[C@@H](C)C(=O)N[C@H]5CSCCC(=O)N6CN7CN(C6)C(=O)CCSC[C@H](NC(=O)[C@H](Cc6ccc(O)cc6)NC(=O)[C@H](CCC(N)=O)NC(=O)CNC(=O)[C@H](CCC(=O)O)NC(=O)[C@H](CCC(=O)O)NC(=O)[C@H]([C@@H](C)CC)NC5=O)C(=O)N[C@@H](Cc5ccccc5)C(=O)N[C@@H](C)C(=O)N[C@@H](CC(=O)O)C(=O)N5CCC[C@H]5C(=O)N[C@@H](Cc5ccc(O)cc5)C(=O)N[C@@H](CCCC)C(=O)N[C@H](C(=O)N[C@@H](C)C(N)=O)CSCCC7=O)(COCCC(=O)NCCOCCOCCOCCOCCOCCOCCOCCOCCOCCOCCOCCOCCOCCOCCOCCOCCOCCOCCOCCOCCOCCOCCOCCn5nnc6c5CCC5C(CC6)C5COC(=O)N[C@@H](C)C(=O)N[C@H]5CSCCC(=O)N6CN7CN(C6)C(=O)CCSC[C@H](NC(=O)[C@H](Cc6ccc(O)cc6)NC(=O)[C@H](CCC(N)=O)NC(=O)CNC(=O)[C@H](CCC(=O)O)NC(=O)[C@H](CCC(=O)O)NC(=O)[C@H]([C@@H](C)CC)NC5=O)C(=O)N[C@@H](Cc5ccccc5)C(=O)N[C@@H](C)C(=O)N[C@@H](CC(=O)O)C(=O)N5CCC[C@H]5C(=O)N[C@@H](Cc5ccc(O)cc5)C(=O)N[C@@H](CCCC)C(=O)N[C@H](C(=O)N[C@@H](C)C(N)=O)CSCCC7=O)COCCC(=O)NCCOCCOCCOCCOCCOCCOCCOCCOCCOCCOCCOCCOCCOCCOCCOCCOCCOCCOCCOCCOCCOCCOCCOCCn5nnc6c5CCC5C(CC6)C5COC(=O)N[C@@H](C)C(=O)N[C@H]5CSCCC(=O)N6CN7CN(C6)C(=O)CCSC[C@H](NC(=O)[C@H](Cc6ccc(O)cc6)NC(=O)[C@H](CCC(N)=O)NC(=O)CNC(=O)[C@H](CCC(=O)O)NC(=O)[C@H](CCC(=O)O)NC(=O)[C@H]([C@@H](C)CC)NC5=O)C(=O)N[C@@H](Cc5ccccc5)C(=O)N[C@@H](C)C(=O)N[C@@H](CC(=O)O)C(=O)N5CCC[C@H]5C(=O)N[C@@H](Cc5ccc(O)cc5)C(=O)N[C@@H](CCCC)C(=O)N[C@H](C(=O)N[C@@H](C)C(N)=O)CSCCC7=O)c4CCC31)C(=O)N[C@@H]([C@@H](C)CC)C(=O)N[C@@H](CCC(=O)O)C(=O)N[C@@H](CCC(=O)O)C(=O)NCC(=O)N[C@@H](CCC(N)=O)C(=O)N[C@@H](Cc1ccc(O)cc1)C(=O)N2 (some centres unmarked) [BCY8149] |  | 0.93 | 140.06 | 
CC[C@H](C)[C@@H]1NC(=O)[C@@H](NC(=O)[C@H](C)NC(C)=O)CSCCC(=O)N2CN3CN(C2)C(=O)CCSC[C@H](NC(=O)[C@H](Cc2ccc(O)cc2)NC(=O)[C@H](CCC(N)=O)NC(=O)CNC(=O)[C@H](CCC(=O)O)NC(=O)[C@H](CCC(=O)O)NC1=O)C(=O)N[C@@H](Cc1ccccc1)C(=O)N[C@@H](C)C(=O)N[C@@H](CC(=O)O)C(=O)N1CCC[C@H]1C(=O)N[C@@H](Cc1ccc(O)cc1)C(=O)N[C@@H](CCCCNC(=O)OCC1C2CCc4nnn(CCOCCOCCOCCOCCOCCOCCOCCOCCOCCOCCNC(=O)CCOCC(COCCC(=O)NCCOCCOCCOCCOCCOCCOCCOCCOCCOCCOCCn5nnc6c5CCC5C(CC6)C5COC(=O)NCCCC[C@@H]5NC(=O)[C@H](Cc6ccc(O)cc6)NC(=O)[C@@H]6CCCN6C(=O)[C@H](CC(=O)O)NC(=O)[C@H](C)NC(=O)[C@H](Cc6ccccc6)NC(=O)[C@@H]6CSCCC(=O)N7CN(CN(C7)C(=O)CCSC[C@@H](C(=O)N[C@@H](C)C(N)=O)NC5=O)C(=O)CCSC[C@H](NC(=O)[C@H](C)NC(C)=O)C(=O)N[C@@H]([C@@H](C)CC)C(=O)N[C@@H](CCC(=O)O)C(=O)N[C@@H](CCC(=O)O)C(=O)NCC(=O)N[C@@H](CCC(N)=O)C(=O)N[C@@H](Cc5ccc(O)cc5)C(=O)N6)(COCCC(=O)NCCOCCOCCOCCOCCOCCOCCOCCOCCOCCOCCn5nnc6c5CCC5C(CC6)C5COC(=O)NCCCC[C@@H]5NC(=O)[C@H](Cc6ccc(O)cc6)NC(=O)[C@@H]6CCCN6C(=O)[C@H](CC(=O)O)NC(=O)[C@H](C)NC(=O)[C@H](Cc6ccccc6)NC(=O)[C@@H]6CSCCC(=O)N7CN(CN(C7)C(=O)CCSC[C@@H](C(=O)N[C@@H](C)C(N)=O)NC5=O)C(=O)CCSC[C@H](NC(=O)[C@H](C)NC(C)=O)C(=O)N[C@@H]([C@@H](C)CC)C(=O)N[C@@H](CCC(=O)O)C(=O)N[C@@H](CCC(=O)O)C(=O)NCC(=O)N[C@@H](CCC(N)=O)C(=O)N[C@@H](Cc5ccc(O)cc5)C(=O)N6)COCCC(=O)NCCOCCOCCOCCOCCOCCOCCOCCOCCOCCOCCn5nnc6c5CCC5C(CC6)C5COC(=O)NCCCC[C@@H]5NC(=O)[C@H](Cc6ccc(O)cc6)NC(=O)[C@@H]6CCCN6C(=O)[C@H](CC(=O)O)NC(=O)[C@H](C)NC(=O)[C@H](Cc6ccccc6)NC(=O)[C@@H]6CSCCC(=O)N7CN(CN(C7)C(=O)CCSC[C@@H](C(=O)N[C@@H](C)C(N)=O)NC5=O)C(=O)CCSC[C@H](NC(=O)[C@H](C)NC(C)=O)C(=O)N[C@@H]([C@@H](C)CC)C(=O)N[C@@H](CCC(=O)O)C(=O)N[C@@H](CCC(=O)O)C(=O)NCC(=O)N[C@@H](CCC(N)=O)C(=O)N[C@@H](Cc5ccc(O)cc5)C(=O)N6)c4CCC21)C(=O)N[C@H](C(=O)N[C@@H](C)C(N)=O)CSCCC3=O (some centres unmarked) [BCY8108] |  | 0.79 | 34.03 | 
ACIEEGQYCFADPYMCA [BCY592, reference compound] |  |  |  | CD137 agonism / activation in reporter cells (in words) ([3]; FIGS. 1 to 3 and 15): no detectable activity
